Values after ≈ are worked out from the molar mass of the structure shown. Read-outs that look alike come from different tables or passages of the source.
Legend:
[1] = Aqueous solubility (CheqSol method, Sirius T3); type: physicochemical; settings: for solubility: water, aqueous buffer, thermodynamic from solid
Description: (§1) 6. Physicochemical Measurements
The logP, pKa in H2O, and aqueous solubility were performed on a Sirius T3 instrument (Pion). The device consists of a pH-meter electrode, a robot that prepares the solutions needed to perform the measurements, and a UV-vis spectrophotometer. Basic titration is performed with a 0.5 M KOH buffer. Acidic titration is performed with a 0.5 M HCl buffer. […]
(§2) (1 picture or pasted object on this page, not shown here)
Solubility measurements were performed using the CheqSol method developed by Pion.22 Because in most cases, compounds are more soluble at pH values where they ionized, the analyte was solubilized in acidic water before pH-titration was performed, measuring the UV-vis spectrum after each addition. The precipitation point was detected from the reduction of the light transmission during UV-vis measurement, or manually when not obvious. The pH-titration was repeated several times around the precipitation point to determine the solubility value by averaging. […]
aqueous solubility (mM) –a […]

[2] = pKa in H2O by pH-metric titration (Sirius T3); type: physicochemical; settings: water, average of 3 measurements
Description: as §1
(§3) The logP, pKa in H2O, and aqueous solubility were performed on a Sirius T3 instrument (Pion). The device consists of a pH-meter electrode, a robot that prepares the solutions needed to perform the measurements, and a UV-vis spectrophotometer. Basic titration is performed with a 0.5 M KOH buffer. Acidic titration is performed with a 0.5 M HCl buffer.
(§4) Log P was determined potentiometrically by using the "Shake flask" method, which consists of dissolving part of the solute in question in a volume of n-octanol and water, then performing pH […]
(§5) To obtain the pKa values, a pH-metric titration experiment was carried out. It can measure pKa values between 2 and 12. An acidic or base titrant was added to reach a starting pH at which the sample is ionized. Then, small volumes of 0.5 M HCl or KOH titrant were added and the pH was measured after each addition. Potentiometric measurement of basic compounds were done from pH 2 to pH 12 by adding 0.5 M KOH solution. Potentiometric measurement of acid ic compounds (20, S1, and 14) were done from pH 12 to pH 2 by adding 0.5 M HCl solution. Measurement points were done every 0.2 pH value. After each addition, the sample was stirred for 60 seconds and the pH value was then collected. The titration experiments were done 3 times and the stated values are averages of the 3 […]
as §2

[3] = logP measurement (Sirius T3, potentiometric shake-flask method, n-octanol/water); type: physicochemical; settings: n-octanol and water
Description: as §1, §3, §4, §5, §2

[4] = Human liver microsome stability; type: in vitro ADME; settings: liver microsomes, pH 7.4, 1 µM compound, 0.5 mg/mL protein, NADPH, 37 °C
Description: (§6) 7. Microsome Stability Measurements for the Cuneane Analog of Sonidegib Microsome stability measurements were performed by Sygnature Discovery (Nottingham, United […]
(§7) The microsomal stability of a test compound is assessed by spiking compound into tissue microsomes containing NADPH in buffer and sampling for up t o 1 h at 37 °C. Following protein precipitation and centrifugation, the samples are analy zed by UPLC-MS-MS.
(§8) To assess the metabolic stability of a test compound in tissue microsomes.
(§9) • Compound identifier and molecular formula
(§10) • 20 µL of 1 mM test compound in DMSO or 1 mg solid
(§11) Dilutions of a 1 mM test compound DMSO stock solution are prepared in 0.01 M phosphate buffered saline (pH7.4)) so that the final DMSO concentration is 0.1% and the final test compound concentration tested is 1 µM. Following addition of protein (0.5 mg/mL final) and NADPH, the samples are pre-incubated for 10 min prior to the start of the incubation by the addition of […]. The test compound will be incubated (n = 2; 1 µM final concentration) at 37 °C with tissue microsomes. […]
(§12) All the samples will be mixed, centrifuged and the supernatants analysed by UPLC-MS-MS.
(§13) The intrinsic clearance (Clint) and half-life (t1/2) values will be determined from the slope of the parent depletion curve. […]

[5] = Mouse liver microsome stability; type: in vitro ADME; settings: CD1, mouse, liver microsomes, pH 7.4, 1 µM compound, 0.5 mg/mL protein, NADPH, 37 °C
Description: as §6, §7, §8, §9, §10, §11, §12, §13

[6] = design: method as in PMID 36763965; settings: literature value; ref [8b]; cited from earlier work
[7] = design: method as in doi:10.1021/ja983441f; settings: literature value; ref ([32]); cited from earlier work
[8] = design: method as in PMID 36763965; settings: literature value; ref [8b]; cited from earlier work; remark: listed apart in the source
[9] = design: method as in PMID 36763965; settings: literature value; ref [8b]; cited from earlier work; remark: listed apart in the source

In the case of COC(=O)C12C3C4C1C1C2C3C41C(=O)O (stereo not drawn) [S1], the solubility [1] is reported as 149 mM (≈ 30.7 mg/mL), the pKa [2] is reported as 3.96 ± 0.01 and the logP [3] is reported as 0.02 ± 0.01.
Work on COC(=O)C12C3C4C5C1C2C3C45C(=O)O (stereo not drawn) [compound 14] yielded a solubility [1] of 210 mM (≈ 43.3 mg/mL), a pKa [2] of 3.99 ± 0.02 and a logP [3] of 0.72 ± 0.01.
For C[C@@H]1CN(c2ccc(NC(=O)C34C5C6C3C3C4C3(c3ccc(OC(F)(F)F)cc3)C65)cn2)C[C@H](C)O1 (stereo partly drawn) [compound 19], the aqueous solubility [1] was “too low to be measured”, the microsomal CLint at 1 µM [4] was 76 µL/min/mg and the half-life at 1 µM ([4]; read-out: human liver microsome stability t1/2) was 19 min. For the same compound, the microsomal CLint at 1 µM [5] was 61 µL/min/mg, the half-life at 1 µM ([5]; read-out: mouse liver microsome stability t1/2) was 23 min and the logP [3] was 4.74 ± 0.23.
With COC(=O)c1ccc(C(=O)O)cc1 [compound 20, 4-(methoxycarbonyl)benzoic acid] the solubility [1] was 1.38 mM (≈ 0.249 mg/mL), the pKa [2] was 3.84 ± 0.01 and the logP [3] was 2.02 ± 0.02.
In the case of Cc1c(C(=O)Nc2ccc(N3C[C@@H](C)O[C@@H](C)C3)nc2)cccc1-c1ccc(OC(F)(F)F)cc1 [sonidegib], the “mouse liver microsome stability Clint” value [6] is given as 26 µL/min/mg, the “mouse liver microsome stability t1/2” value [6] is given as 53 min and the logP [7] is given as 4.26 (ref ([32])). The aqueous solubility [8] was <1.6 × 10^–3 (ref [8b]) mM, the “human liver microsome stability Clint” value [9] was 20 µL/min/mg and the “human liver microsome stability t1/2” value [9] was 70 min.
